# Data as given in US20100004275A1, “AGENT FOR SUPPRESSING DEVELOPMENT OF TOLERANCE TO NARCOTIC ANALGESICS” (KYOTO UNIVERSITY, priority 2004, published 2010).
# Tests used:
# [1] = tested on: V1a receptor knockout mice, V1b receptor knockout mice, and control mice; assay: Tail-flick test, development of tolerance to morphine in V1a/V1b receptor knockout and control mice (Example 1); format: in vivo; settings: 10 mg/kg s.c. once a day for 15 days, FIG. 1
# Procedure: V1a receptor knockout mice (Neuroscience Letters, 356, pp. 195-198, 2004), V1b receptor knockout mice (J. Clin. Invest., 113, pp. 302-309, 2004), and control mice (body weight: about 30 g) were subcutaneously (s.c.) given with 10 mg/kg of morphine hydrochloride once a day, which was repeated for 15 days. The analgesic effect was evaluated by the tail-flick test on 1st, 5th, 9th, 12th and 15th days after the administration on the basis of the maximal possible effect (% MPE), which represents analgesic intensity and is calculated in accordance with the following equation.
# (§1) % MPE=100×[(Measured value after treatment−Measured value before treatment)[…](Cut-off value−Measured value before treatment)]
# [2] = tested on: ddY mice; assay: Tail-flick test, tolerance to morphine analgesic induced by repeated morphine, with V1 receptor antagonist i.c.v. (Example 2); format: in vivo; settings: male ddY mice; antagonist 0.5, 5 or 10 ng i.c.v. + morphine hydrochloride 10 mg/kg s.c. twice a day for 5 days; 1st, 3rd and 5th days; FIGS. 2 to 4
# Procedure: as §1
# Male ddY mice (5- or 6-week old) were intracerebroventricularly (i.c.v.) given with 5 μl of physiological saline or a V1 receptor antagonist (0.5, 5 or 10 ng), and immediately after the administration, the mice were subcutaneously given with 10 mg/kg of morphine hydrochloride, which was repeated twice a day for 5 days to induce tolerance to morphine analgesic. The analgesic effect was evaluated by the tail-flick test on 1st, 3rd and 5th days after the administration on the basis of intensity of analgesic effect using % MPE and AUC (area under the time-reaction curve, Area Under the Curve). As the V1 receptor antagonist, the following three types of antagonists were used.
Molecule,development of tolerance to analgesic effect (% MPE) ([1]; V1a receptor knockout mice),development of tolerance to analgesic effect (% MPE) ([1]; V1b receptor knockout mice),development of tolerance to analgesic effect (% MPE) ([1]; control mice),effect on development of tolerance to morphine (% MPE and AUC) [2]
"CN1CC[C@]23c4c5ccc(O)c4O[C@H]2[C@@H](O)C=C[C@H]3[C@H]1C5.Cl [morphine, morphine hydrochloride]",tolerance to morphine was developed,remarkable resistance against tolerance to morphine was observed,tolerance to morphine was developed,–
"[phenylacetyl, O-Me-D-Try, Arg, Lys]-vasopressin amide [PhAcALVP]",–,–,–,had no effect on the tolerance development
"[β-mercapto-β,β-cyclopentamethylenepropionyl, O-Me-Tyr, Arg]-vasopressin [d(CH2)5Tyr(Me)AVP]",–,–,–,had no effect on the tolerance development
"deamino-Pen, O-Me-Tyr, Arg]-vasopressin [dPenTyr(Me)AVP]",–,–,–,suppressed the development of tolerance
